Reference: the CheMixHub viscosity set

Assay: xn = mol fraction of the nth substance listed

Brc1ccccc1 + ClC(Cl)=C(Cl)Cl
303.15 K, 101 kPa
Details	viscosity [mPa·s]
x2 = 0.1026	0.978
x2 = 0.1749	0.971
x2 = 0.2799	0.96
x2 = 0.3996	0.945
x2 = 0.4574	0.933
x2 = 0.5408	0.916
x2 = 0.6276	0.894
x2 = 0.7273	0.871
x2 = 0.8585	0.84
x2 = 0.9426	0.822

Brc1ccccc1 + Cc1ccccc1C
101 kPa
Details	viscosity [mPa·s]
293.15 K, x1 = 0.114	0.795
293.15 K, x1 = 0.2198	0.827
293.15 K, x1 = 0.3257	0.862
293.15 K, x1 = 0.4383	0.893
293.15 K, x1 = 0.542	0.931
293.15 K, x1 = 0.6615	0.962
293.15 K, x1 = 0.7764	1
293.15 K, x1 = 0.882	1.035
298.15 K, x1 = 0.1101	0.728
298.15 K, x1 = 0.2223	0.765
298.15 K, x1 = 0.3227	0.795
298.15 K, x1 = 0.4226	0.826
298.15 K, x1 = 0.5207	0.863
298.15 K, x1 = 0.6643	0.9
298.15 K, x1 = 0.772	0.938
298.15 K, x1 = 0.8925	0.969
303.15 K, x1 = 0.117	0.667
303.15 K, x1 = 0.2219	0.701
303.15 K, x1 = 0.3366	0.734
303.15 K, x1 = 0.4539	0.77
303.15 K, x1 = 0.5398	0.8
303.15 K, x1 = 0.6572	0.834
303.15 K, x1 = 0.7877	0.876
303.15 K, x1 = 0.9122	0.91

CCCC#N + CC(C)(C)O
viscosity [mPa·s]
Details	298.15 K	303.15 K	308.15 K	313.15 K	318.15 K
101 kPa, x2 = 0.0941	0.5487	0.5396	0.519	–	–
101 kPa, x2 = 0.1845	0.5808	0.5686	0.5478	–	–
101 kPa, x2 = 0.2837	0.6365	0.6123	0.5852	–	–
101 kPa, x2 = 0.3758	0.7071	0.6764	0.6373	–	–
101 kPa, x2 = 0.4766	0.8042	0.7523	0.6952	–	–
101 kPa, x2 = 0.5782	0.9457	0.8545	0.7793	–	–
101 kPa, x2 = 0.6804	1.211	1.071	0.9743	–	–
101 kPa, x2 = 0.7836	1.61	1.417	1.268	–	–
101 kPa, x2 = 0.8906	2.345	2.01	1.734	–	–
101.33 kPa, x2 = 0.0953	0.575	0.54	0.51	0.481	0.456
101.33 kPa, x2 = 0.1938	0.613	0.573	0.537	0.505	0.476
101.33 kPa, x2 = 0.2941	0.669	0.622	0.579	0.54	0.506
101.33 kPa, x2 = 0.3922	0.749	0.689	0.636	0.589	0.546
101.33 kPa, x2 = 0.4949	0.867	0.788	0.719	0.66	0.607
101.33 kPa, x2 = 0.591	1.03	0.923	0.834	0.753	0.685
101.33 kPa, x2 = 0.695	1.297	1.138	1.006	0.895	0.802
101.33 kPa, x2 = 0.7957	1.727	1.476	1.272	1.107	0.974
101.33 kPa, x2 = 0.9002	2.573	2.103	1.746	1.464	1.245

COC(=O)CC(=O)OC + ClC(Cl)Cl
303.15 K, 101 kPa
Details	viscosity [mPa·s]
x1 = 0.0727	0.612
x1 = 0.1507	0.727
x1 = 0.2329	0.845
x1 = 0.3213	0.968
x1 = 0.415	1.092
x1 = 0.5154	1.222
x1 = 0.6231	1.354
x1 = 0.7393	1.492
x1 = 0.8644	1.64

O=C1CCCO1 + CCOC(C)=O
298.15 K, 101.33 kPa
Details	viscosity [mPa·s]
x2 = 0.0501	1.575
x2 = 0.1023	1.453
x2 = 0.1528	1.345
x2 = 0.2005	1.249
x2 = 0.2542	1.152
x2 = 0.3039	1.071
x2 = 0.4046	0.926
x2 = 0.4546	0.864
x2 = 0.5006	0.81
x2 = 0.5528	0.755
x2 = 0.6019	0.707
x2 = 0.6994	0.622
x2 = 0.75	0.583
x2 = 0.7981	0.547
x2 = 0.849	0.513
x2 = 0.902	0.481
x2 = 0.9504	0.45

C1COCCO1 + CCO
viscosity [mPa·s]
Details	293.15 K	298.15 K	303.15 K	308.15 K
101 kPa, x1 = 0.0584	–	0.992	–	–
101 kPa, x1 = 0.1156	–	0.938	–	–
101 kPa, x1 = 0.1834	–	0.884	–	–
101 kPa, x1 = 0.2678	–	0.86	–	–
101 kPa, x1 = 0.3	–	0.9243	–	–
101 kPa, x1 = 0.3438	–	0.849	–	–
101 kPa, x1 = 0.4473	–	0.863	–	–
101 kPa, x1 = 0.5589	–	0.885	–	–
101 kPa, x1 = 0.689	–	0.933	–	–
101 kPa, x1 = 0.8264	–	1.029	–	–
101 kPa, x2 = 0.1798	–	1.027	0.9544	0.8897
101 kPa, x2 = 0.324	–	0.9634	0.8928	0.8361
101 kPa, x2 = 0.4539	–	0.9317	0.8654	0.8124
101 kPa, x2 = 0.5608	–	0.9336	0.8661	0.8072
101 kPa, x2 = 0.6591	–	0.9547	0.8825	0.8181
101 kPa, x2 = 0.7972	–	1.025	0.9451	0.8639
101 kPa, x2 = 0.8858	–	1.102	1.008	0.919
101 kPa, x2 = 0.9427	–	1.179	1.068	0.9697
101.33 kPa, x1 = 0.0703	1.069	0.96	0.8879	0.8147
101.33 kPa, x1 = 0.1455	0.9889	0.8885	0.8285	0.7595
101.33 kPa, x1 = 0.2259	0.9468	0.8529	0.7902	0.7308
101.33 kPa, x1 = 0.3126	0.9216	0.8387	0.7727	0.7174
101.33 kPa, x1 = 0.4045	0.9225	0.8391	0.7751	0.7182
101.33 kPa, x1 = 0.5051	0.9277	0.8469	0.7819	0.7278
101.33 kPa, x1 = 0.6163	0.9582	0.8803	0.8165	0.7622
101.33 kPa, x1 = 0.7297	1.029	0.9425	0.8647	0.8101
101.33 kPa, x1 = 0.86	1.135	1.044	0.9699	0.8938
101.33 kPa, x2 = 0.2101	–	–	0.984	–
101.33 kPa, x2 = 0.5822	–	–	0.825	–
101.33 kPa, x2 = 0.7056	–	–	0.798	–
101.33 kPa, x2 = 0.9653	–	–	0.927	–

Brc1ccccc1 + C1COCCO1
303.15 K, 101 kPa
Details	viscosity [mPa·s]
x1 = 0.083	1.075
x1 = 0.17	1.078
x1 = 0.259	1.122
x1 = 0.352	1.131
x1 = 0.449	1.125
x1 = 0.55	1.115
x1 = 0.655	1.108
x1 = 0.766	1.079
x1 = 0.88	1.034
